For assay [1], the target named is T1, Delta-type opioid receptor (Homo sapiens, UniProt P41143). As to the kind of experiment: Agonist activity at DOR (unknown origin) expressed in HEK cells assessed as reduction in cAMP accumulation by split luciferase assay. Type of assay: functional, cell-based.
The target in assay [2] is T2, Mu-type opioid receptor (Homo sapiens, UniProt P35372). As to the kind of experiment: Displacement of [3H]DAMGO from MOR (unknown origin) expressed in HEK cells. Type of assay: cell-based.
T2 sequence (P35372 whole entry): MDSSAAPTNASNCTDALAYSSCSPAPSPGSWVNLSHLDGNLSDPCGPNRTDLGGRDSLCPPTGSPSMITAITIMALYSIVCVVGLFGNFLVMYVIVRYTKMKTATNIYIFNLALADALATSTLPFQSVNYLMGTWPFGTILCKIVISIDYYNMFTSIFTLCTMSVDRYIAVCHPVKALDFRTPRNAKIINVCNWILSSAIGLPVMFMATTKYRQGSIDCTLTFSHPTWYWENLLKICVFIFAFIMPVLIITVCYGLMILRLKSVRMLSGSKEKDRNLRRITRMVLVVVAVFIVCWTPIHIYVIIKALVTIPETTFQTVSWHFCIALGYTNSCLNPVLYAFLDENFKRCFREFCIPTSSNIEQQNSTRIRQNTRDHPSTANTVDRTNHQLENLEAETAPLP
Assay [3] has as its target T2, Mu-type opioid receptor. As to the kind of experiment: Agonist activity at MOR (unknown origin) expressed in HEK cells assessed as reduction in cAMP accumulation by split luciferase assay. The class given is functional, cell-based.
In assay [4] the target is T3, Kappa-type opioid receptor (Homo sapiens, UniProt P41145). As to the kind of experiment: Agonist activity at KOR (unknown origin) expressed in HEK cells assessed as reduction in cAMP accumulation by split luciferase assay relative to salvinorin A. The class given is functional, cell-based.
T3 sequence (P41145 whole entry): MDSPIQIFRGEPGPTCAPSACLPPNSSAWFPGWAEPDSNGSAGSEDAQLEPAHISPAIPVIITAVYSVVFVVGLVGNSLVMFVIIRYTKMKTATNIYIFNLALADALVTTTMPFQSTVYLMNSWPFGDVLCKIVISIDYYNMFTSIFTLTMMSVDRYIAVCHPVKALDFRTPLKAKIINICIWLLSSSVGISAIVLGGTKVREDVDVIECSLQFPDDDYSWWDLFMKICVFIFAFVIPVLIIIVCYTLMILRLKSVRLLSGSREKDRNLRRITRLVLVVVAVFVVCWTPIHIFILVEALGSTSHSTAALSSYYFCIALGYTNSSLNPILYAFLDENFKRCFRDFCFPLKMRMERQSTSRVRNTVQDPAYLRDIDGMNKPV
Assay [5] addresses T1, Delta-type opioid receptor. Briefly: Displacement of [3H]DADLE from DOR (unknown origin) expressed in HEK cells. Type of assay: cell-based.
Assay [6] addresses T3, Kappa-type opioid receptor. Briefly: Agonist activity at KOR (unknown origin) expressed in HEK cells assessed as reduction in cAMP accumulation by split luciferase assay. The class given is functional, cell-based.
Assay [7] concerns the target T2, Mu-type opioid receptor. As to the kind of experiment: Antagonist activity at MOR (unknown origin) expressed in HEK cells assessed as cAMP accumulation by split luciferase assay. Type of assay: functional, cell-based.
The target of assay [8] is T2, Mu-type opioid receptor. Briefly: Agonist activity at MOR (unknown origin) expressed in HEK cells assessed as reduction in cAMP accumulation by split luciferase assay relative to DAMGO. The class given is functional, cell-based.
Assay [9] concerns the target T1, Delta-type opioid receptor. As to the kind of experiment: Agonist activity at DOR (unknown origin) expressed in HEK cells assessed as reduction in cAMP accumulation by split luciferase assay relative to DADLE. Type of assay: functional, cell-based.
For assay [10], the target named is T1, Delta-type opioid receptor. Briefly: Antagonist activity at DOR (unknown origin) expressed in HEK cells assessed as cAMP accumulation by split luciferase assay. The class given is functional, cell-based.
For assay [11], the target named is T3, Kappa-type opioid receptor. Briefly: Displacement of [3H]U69593 from KOR (unknown origin) expressed in HEK cells. Type of assay: cell-based.
Assay [12] deals with T3, Kappa-type opioid receptor. Briefly: Antagonist activity at KOR (unknown origin) expressed in HEK cells assessed as cAMP accumulation by split luciferase assay. Type of assay: functional, cell-based.
The target in assay [13] is T3, Kappa-type opioid receptor. Briefly: Binding affinity to KOR (unknown origin).

Activity calls are given as the source filed them. No cut-off for these calls is given here. *1 amine or outer side, *2 acyl side, *3 side chain or, on linkers, in order; H or OH if unused. Where a SMILES comes first, the peptide text is derived from it. Bridges are numbered along the chain shown (N, C = ends). Roman numbers before positions name the chains, in order. [ ]: non-standard residue; d: D form. Piperazine(1,4-diyl) = C1CN([*:2])CCN1[*:1]; Dmt = Cc1cc(O)cc(C)c1C[C@H](N)C(=O)O; Cystamine = C(CSSCCN[*:2])N[*:1]

T1 sequence (P41143 whole entry): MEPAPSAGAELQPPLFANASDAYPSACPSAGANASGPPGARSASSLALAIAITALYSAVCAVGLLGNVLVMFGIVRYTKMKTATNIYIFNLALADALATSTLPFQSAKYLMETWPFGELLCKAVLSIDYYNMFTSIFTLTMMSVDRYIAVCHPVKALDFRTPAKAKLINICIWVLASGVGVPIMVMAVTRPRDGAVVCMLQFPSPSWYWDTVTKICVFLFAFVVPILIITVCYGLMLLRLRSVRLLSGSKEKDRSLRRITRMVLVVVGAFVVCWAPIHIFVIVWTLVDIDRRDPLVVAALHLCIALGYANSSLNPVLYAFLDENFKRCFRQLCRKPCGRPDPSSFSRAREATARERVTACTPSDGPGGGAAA

For `Cc1cc(O)cc(C)c1C[C@H](N)C(=O)N[C@@H]1CSSC[C@@H](NC(=O)[C@@H](N)Cc2c(C)cc(O)cc2C)C(=O)NCC(=O)N[C@@H](Cc2ccccc2)C(=O)NCCSSCCNC(=O)[C@H](Cc2ccccc2)NC(=O)CNC1=O` (I: H-[Dmt][dC]GF / II: H-[Dmt][dC]GF; disulfide I:2-II:2; linker I:C-II:C via Cystamine), the figures for the EC50 (in assay [1] (read-out: EC50); at Mu-type opioid receptor [3]; in assay [6]) were 1.45 nM, 3.47 nM and 13.5 nM, respectively. Besides, the inhibition constant (Ki) on Mu-type opioid receptor [2] is 0.27 nM; in assay [5], 0.46 nM; in assay [11], 0.87 nM. The Emax in assay [4] amounted to 98%; on Mu-type opioid receptor [8], 119%; in assay [9], 106%. The outcome (on Mu-type opioid receptor [7]; in [10]; in assay [12]) was inactive.
In turn, `C[C@@H](NC(=O)[C@@H](N)Cc1ccc(O)cc1)C(=O)NCC(=O)N[C@@H](Cc1ccccc1)C(=O)NNC(=O)[C@H](Cc1ccccc1)NC(=O)CNC(=O)[C@@H](C)NC(=O)[C@@H](N)Cc1ccc(O)cc1` [BIPHALIN] showed an inhibition constant (Ki) in [13] of 270 nM.
As to `N[C@@H](Cc1ccc(O)cc1)C(=O)N[C@@H]1CSSC[C@@H](NC(=O)[C@@H](N)Cc2ccc(O)cc2)C(=O)NCC(=O)N[C@@H](Cc2ccccc2)C(=O)N2CCN(CC2)C(=O)[C@H](Cc2ccccc2)NC(=O)CNC1=O` (HELM PEPTIDE1{Y.[dC].G.F}|PEPTIDE2{Y.[dC].G.F}|CHEM1{[C1CN([*:2])CCN1[*:1]]}$PEPTIDE1,PEPTIDE2,2:R3-2:R3|PEPTIDE1,CHEM1,4:R2-1:R1|PEPTIDE2,CHEM1,4:R2-1:R2$$$V2.0), the EC50 in assay [1] (read-out: EC50) is 245 nM; at Mu-type opioid receptor [3] it was 513 nM; in assay [6], 339 nM. Further, the Ki stood at 8.9 nM at Mu-type opioid receptor [2], 27 nM in assay [5] and 19 nM in assay [11]. Moreover, the Emax in [4] was 92%; on Mu-type opioid receptor [8], 54%; in assay [9], 77%. The outcome (at Mu-type opioid receptor [7]; in [10]; in [12]) was inactive.
Take `Cc1cc(O)cc(C)c1C[C@H](N)C(=O)N[C@@H]1CSSC[C@@H](NC(=O)[C@@H](N)Cc2c(C)cc(O)cc2C)C(=O)NCC(=O)N[C@@H](Cc2ccccc2)C(=O)N2CCN(CC2)C(=O)[C@H](Cc2ccccc2)NC(=O)CNC1=O` (I: H-[Dmt][dC]GF / II: H-[Dmt][dC]GF; disulfide I:2-II:2; linker I:C-II:C via Piperazine(1,4-diyl)): the EC50 in [1] (read-out: EC50) was 117 nM; in assay [1] (read-out: pEC50 (converted)), 11.7 nM; at Mu-type opioid receptor [3], 112 nM; in assay [6], 63.1 nM. Besides, the inhibitory constant (Ki) on Mu-type opioid receptor [2] was found to be 2.5 nM; in assay [5], 2 nM; in assay [11], 4.9 nM. Besides, the Emax was determined as 82% in [4], 58% on Mu-type opioid receptor [8] and 90% in [9]. For the same compound, the outcome (on Mu-type opioid receptor [7]; in assay [10]; in assay [12]) was inactive.
On to `CC1(C)SSC(C)(C)[C@H](NC(=O)[C@@H](N)Cc2ccc(O)cc2)C(=O)NCC(=O)N[C@@H](Cc2ccccc2)C(=O)N2CCN(CC2)C(=O)[C@H](Cc2ccccc2)NC(=O)CNC(=O)[C@H]1NC(=O)[C@@H](N)Cc1ccc(O)cc1` (HELM PEPTIDE1{Y.[Pen].G.F}|PEPTIDE2{Y.[Pen].G.F}|CHEM1{[C1CN([*:2])CCN1[*:1]]}$PEPTIDE1,PEPTIDE2,2:R3-2:R3|PEPTIDE1,CHEM1,4:R2-1:R1|PEPTIDE2,CHEM1,4:R2-1:R2$$$V2.0), for which the Emax in [4] was 62%; on Mu-type opioid receptor [8] it was 86%; in assay [9] it was 206%. Also, the result (on Mu-type opioid receptor [7]; in assay [10]; in assay [12]) was inactive.
On to `N[C@@H](Cc1ccc(O)cc1)C(=O)N[C@@H]1CSSC[C@@H](NC(=O)[C@@H](N)Cc2ccc(O)cc2)C(=O)NCC(=O)N[C@@H](Cc2ccccc2)C(=O)NCCSSCCNC(=O)[C@H](Cc2ccccc2)NC(=O)CNC1=O` (HELM PEPTIDE1{Y.[dC].G.F}|PEPTIDE2{Y.[dC].G.F}|CHEM1{[C(CSSCCN[*:2])N[*:1]]}$PEPTIDE1,PEPTIDE2,2:R3-2:R3|PEPTIDE1,CHEM1,4:R2-1:R1|PEPTIDE2,CHEM1,4:R2-1:R2$$$V2.0), for which the values for the EC50 (in assay [1] (read-out: EC50); at Mu-type opioid receptor [3]; in [6]) were 26.9 nM, 87.1 nM and 135 nM, respectively. The Ki at Mu-type opioid receptor [2] worked out at 2.4 nM; in assay [5] it was 4.1 nM; in assay [11], 18 nM. Besides, the Emax in assay [4] worked out at 99%; at Mu-type opioid receptor [8], 90%; in assay [9], 91%. Moreover, the outcome (at Mu-type opioid receptor [7]; in assay [10]; in assay [12]) was inactive.
